Measured values reported in patent US20140039044A1, “Hydroxylated Polymethoxyflavone Compositions” (WLLGEN, INC., priority 2006, published 2014).

What was measured:
Assay type in all cases: cell-based, human
[1] = tested on: HT-29 cells; experiment: Apoptotic ratio by propidium iodide flow cytometry (AC50); conditions: Homo sapiens, read-out: Apoptosis-inducing AC50
Summary of the method: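 HT-29 cells (2×10^5) were treated with compound for 24 h, then fixed in ice-cold ethanol overnight and treated with Triton X-100/RNase at 37 °C for 30 min. They were stained with propidium iodide (50 μg/mL solution) on ice for 30 min. The apoptotic fraction was measured from PI-DNA fluorescence by flow cytometry, and AC50 was reported.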

[2] = tested on: HL-60 cells; experiment: Cell cycle distribution by flow cytometry; conditions: 24 h; for Cell Cycle Distribution G0/G1 / Cell Cycle Distribution G2/M / Cell Cycle Distribution S: Table 10; for Cell cycle arrest, in words: 25-100 μM
Summary of the method: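 HL-60 cells were treated for 24 h with compound at 5, 10, 25, 50 or 100 μM, or with DMSO. Cells were then ethanol-fixed, treated with Triton X-100/RNase and stained with propidium iodide. DNA content was measured by flow cytometry to give cell-cycle phase distribution.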

[3] = tested on: AGS cells; experiment: Cell cycle distribution by flow cytometry; conditions: 24 h, Table 11
Summary of the method: (§1)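 Human cancer cells (2×10^5 per dish) exposed 24 h to compound at 5–100 μM, or DMSO. Cells ethanol-fixed at −20° C overnight, RNase/Triton-treated at 37° C for 30 min, then stained with propidium iodide. DNA content read by FACScan flow cytometry to give phase distribution.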

[4] = tested on: COLO205 cells; experiment: Cell cycle distribution by flow cytometry; conditions: COLO205 cells, 24 h, Table 12
Summary of the method: as §1

[5] = tested on: HT-29 cells; experiment: Cell cycle distribution by flow cytometry; conditions: for Cell Cycle Distribution G0/G1 / Cell Cycle Distribution G2/M / Cell Cycle Distribution S: 24 h
Summary of the method: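 Cells were treated 24 h with compound at 5, 10, 25, 50 or 100 μM, or with DMSO. They were then ethanol-fixed, RNase-treated and stained with propidium iodide. DNA content was measured by FACScan flow cytometry to give cell-cycle phase distribution.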

## COc1cc(-c2cc(=O)c3c(OC)c(OC)c(OC)c(OC)c3o2)cc(OC)c1OC [F, 5,6,7,8,3′,4′,5′-heptamethoxyflavone, reference compound]
[1]
  AC50: > 100 µM
[2]; 5 μM
  Cell Cycle Distribution G0/G1: 42.11 ± 0.37
  Cell Cycle Distribution G2/M: 10.56 ± 1.16
  Cell Cycle Distribution S: 47.34 ± 1.53
[2]; 10 μM
  Cell Cycle Distribution G0/G1: 48.35 ± 1.83
  Cell Cycle Distribution G2/M: 10.59 ± 1.46
  Cell Cycle Distribution S: 41.07 ± 0.37
[2]; 25 μM
  Cell Cycle Distribution G0/G1: 57.82 ± 1.51
  Cell Cycle Distribution G2/M: 7.28 ± 1.54
  Cell Cycle Distribution S: 34.90 ± 0.03
[2]; 50 μM
  Cell Cycle Distribution G0/G1: 60.39 ± 0.23
  Cell Cycle Distribution G2/M: 8.44 ± 0.54
  Cell Cycle Distribution S: 31.18 ± 0.30
[2]; 100 μM
  Cell Cycle Distribution G0/G1: 63.66 ± 2.33
  Cell Cycle Distribution G2/M: 4.92 ± 0.46
  Cell Cycle Distribution S: 31.43 ± 1.87
[2]
  Cell cycle arrest, in words: significant G1 arrest
[3]; 5 μM
  Cell Cycle Distribution G0/G1: 58.22 ± 1.10
  Cell Cycle Distribution G2/M: 14.76 ± 0.94
  Cell Cycle Distribution S: 27.02 ± 0.17
[3]; 10 μM
  Cell Cycle Distribution G0/G1: 62.41 ± 6.13
  Cell Cycle Distribution G2/M: 14.56 ± 0.58
  Cell Cycle Distribution S: 23.04 ± 5.55
[3]; 25 μM
  Cell Cycle Distribution G0/G1: 62.24 ± 0.71
  Cell Cycle Distribution G2/M: 15.34 ± 1.30
  Cell Cycle Distribution S: 22.57 ± 2.21
[3]; 50 μM
  Cell Cycle Distribution G0/G1: 65.87 ± 0.93
  Cell Cycle Distribution G2/M: 13.05 ± 0.98
  Cell Cycle Distribution S: 21.08 ± 1.90
[3]; 100 μM
  Cell Cycle Distribution G0/G1: 64.22 ± 5.56
  Cell Cycle Distribution G2/M: 13.92 ± 1.06
  Cell Cycle Distribution S: 21.86 ± 4.50
[4]; 5 μM
  Cell Cycle Distribution G0/G1: 68.30 ± 1.36
  Cell Cycle Distribution G2/M: 8.71 ± 0.55
  Cell Cycle Distribution S: 23.00 ± 0.80
[4]; 10 μM
  Cell Cycle Distribution G0/G1: 71.96 ± 0.24
  Cell Cycle Distribution G2/M: 8.38 ± 0.43
  Cell Cycle Distribution S: 19.67 ± 0.67
[4]; 25 μM
  Cell Cycle Distribution G0/G1: 72.22 ± 0.54
  Cell Cycle Distribution G2/M: 9.80 ± 0.20
  Cell Cycle Distribution S: 17.98 ± 0.74
[4]; 50 μM
  Cell Cycle Distribution G0/G1: 76.39 ± 0.85
  Cell Cycle Distribution G2/M: 8.02 ± 0.50
  Cell Cycle Distribution S: 15.60 ± 1.35
[4]; 100 μM
  Cell Cycle Distribution G0/G1: 78.64 ± 0.34
  Cell Cycle Distribution G2/M: 8.65 ± 0.19
  Cell Cycle Distribution S: 12.71 ± 0.52
[5]; 5 μM
  Cell Cycle Distribution G0/G1: 70.24 ± 0.52
  Cell Cycle Distribution G2/M: 7.11 ± 0.17
  Cell Cycle Distribution S: 22.66 ± 0.35
[5]; 10 μM
  Cell Cycle Distribution G0/G1: 76.34 ± 0.35
  Cell Cycle Distribution G2/M: 7.06 ± 0.42
  Cell Cycle Distribution S: 16.61 ± 0.06
[5]; 25 μM
  Cell Cycle Distribution G0/G1: 82.19 ± 0.16
  Cell Cycle Distribution G2/M: 6.83 ± 0.61
  Cell Cycle Distribution S: 10.98 ± 0.45
[5]; 50 μM
  Cell Cycle Distribution G0/G1: 88.64 ± 0.27
  Cell Cycle Distribution G2/M: 6.25 ± 0.58
  Cell Cycle Distribution S: 5.11 ± 0.31
[5]; 100 μM
  Cell Cycle Distribution G0/G1: 89.85 ± 0.13
  Cell Cycle Distribution G2/M: 6.07 ± 0.06
  Cell Cycle Distribution S: 4.10 ± 0.06
[5]; 5-100 μM, 24 h exposure
  Cell cycle arrest, in words: significant accumulation of cells in G1 phase

## COc1c(OC)c(OC)c2c(=O)cc(-c3ccc(O)c(O)c3)oc2c1OC [H, 3′,4′-dihydroxy-5,6,7,8-tetramethoxyflavone]
[1]
  AC50: > 100 µM
[2]; 5 μM
  Cell Cycle Distribution G0/G1: 49.78 ± 1.80
  Cell Cycle Distribution G2/M: 4.37 ± 5.00
  Cell Cycle Distribution S: 45.85 ± 6.80
[2]; 10 μM
  Cell Cycle Distribution G0/G1: 49.29 ± 1.53
  Cell Cycle Distribution G2/M: 2.76 ± 3.90
  Cell Cycle Distribution S: 47.95 ± 5.43
[2]; 25 μM
  Cell Cycle Distribution G0/G1: 52.82 ± 0.15
  Cell Cycle Distribution G2/M: 5.49 ± 1.11
  Cell Cycle Distribution S: 41.68 ± 0.93
[2]; 50 μM
  Cell Cycle Distribution G0/G1: 62.04 ± 1.19
  Cell Cycle Distribution G2/M: 10.70 ± 0.89
  Cell Cycle Distribution S: 27.27 ± 0.31
[2]; 100 μM
  Cell Cycle Distribution G0/G1: 61.15 ± 7.03
  Cell Cycle Distribution G2/M: 25.94 ± 8.32
  Cell Cycle Distribution S: 12.91 ± 15.34
[2]
  Cell cycle arrest, in words: significant G1 arrest
[3]; 5 μM
  Cell Cycle Distribution G0/G1: 62.78 ± 2.93
  Cell Cycle Distribution G2/M: 16.57 ± 1.93
  Cell Cycle Distribution S: 20.66 ± 1.00
[3]; 10 μM
  Cell Cycle Distribution G0/G1: 61.72 ± 2.76
  Cell Cycle Distribution G2/M: 17.39 ± 2.76
  Cell Cycle Distribution S: 20.89 ± 0.00
[3]; 25 μM
  Cell Cycle Distribution G0/G1: 63.91 ± 0.92
  Cell Cycle Distribution G2/M: 16.82 ± 1.04
  Cell Cycle Distribution S: 19.28 ± 0.12
[3]; 50 μM
  Cell Cycle Distribution G0/G1: 63.96 ± 1.65
  Cell Cycle Distribution G2/M: 16.74 ± 2.15
  Cell Cycle Distribution S: 19.31 ± 0.51
[3]; 100 μM
  Cell Cycle Distribution G0/G1: 68.04 ± 1.34
  Cell Cycle Distribution G2/M: 22.69 ± 0.13
  Cell Cycle Distribution S: 9.27 ± 1.46
[4]; 5 μM
  Cell Cycle Distribution G0/G1: 67.26 ± 0.45
  Cell Cycle Distribution G2/M: 8.17 ± 0.60
  Cell Cycle Distribution S: 24.58 ± 0.15
[4]; 10 μM
  Cell Cycle Distribution G0/G1: 66.67 ± 0.16
  Cell Cycle Distribution G2/M: 6.18 ± 0.63
  Cell Cycle Distribution S: 27.16 ± 0.46
[4]; 25 μM
  Cell Cycle Distribution G0/G1: 66.99 ± 1.32
  Cell Cycle Distribution G2/M: 6.89 ± 0.21
  Cell Cycle Distribution S: 26.13 ± 1.11
[4]; 50 μM
  Cell Cycle Distribution G0/G1: 64.49 ± 1.00
  Cell Cycle Distribution G2/M: 8.94 ± 1.12
  Cell Cycle Distribution S: 26.57 ± 2.12
[4]; 100 μM
  Cell Cycle Distribution G0/G1: 66.50 ± 0.06
  Cell Cycle Distribution G2/M: 6.98 ± 0.02
  Cell Cycle Distribution S: 26.53 ± 0.08
[5]; 5 μM
  Cell Cycle Distribution G0/G1: 63.21 ± 1.82
  Cell Cycle Distribution G2/M: 7.53 ± 0.81
  Cell Cycle Distribution S: 29.26 ± 2.63
[5]; 10 μM
  Cell Cycle Distribution G0/G1: 64.87 ± 0.74
  Cell Cycle Distribution G2/M: 8.19 ± 0.09
  Cell Cycle Distribution S: 26.95 ± 0.64
[5]; 25 μM
  Cell Cycle Distribution G0/G1: 63.87 ± 0.92
  Cell Cycle Distribution G2/M: 8.45 ± 0.46
  Cell Cycle Distribution S: 27.68 ± 1.37
[5]; 50 μM
  Cell Cycle Distribution G0/G1: 63.10 ± 0.16
  Cell Cycle Distribution G2/M: 7.94 ± 0.84
  Cell Cycle Distribution S: 28.98 ± 0.69
[5]; 100 μM
  Cell Cycle Distribution G0/G1: 61.66 ± 1.44
  Cell Cycle Distribution G2/M: 4.98 ± 1.55
  Cell Cycle Distribution S: 33.37 ± 0.11
